In patent US10334849B2, “Salts of carboxylic acid herbicides” (Monsanto Technology LLC, priority 2011, dated 2019):
Read-outs that look alike come from different tables or passages of the source.

How the values were obtained:
velvetleaf (ABUTH) = conditions: 21 days after treatment
Method: In this example, the herbicidal effectiveness of selected dicamba salts prepared in accordance with Example 1 was evaluated in greenhouse testing. The herbicidal effectiveness data set forth herein report “Weed killing efficacy” as a percentage following a standard procedure in the art which reflects a visual assessment of plant mortality and growth reduction by comparison with untreated plants, made by technicians specially trained to make and record such observations. Such measurements are relied upon and regularly reported by Monsanto Company in the course of its herbicide business.
The following procedure was used for testing compositions of this example to determine herbicidal effectiveness.
Seeds of velvetleaf (ABUTH) were planted in 85 mm square pots in a soil mix which was previously steam sterilized and prefertilized with a 14-14-14 NPK slow release fertilizer at a rate of 3.6 kg/m^3. The pots were placed in a greenhouse with sub-irrigation. About one week after emergence, seedlings were thinned as needed, including removal of any unhealthy or abnormal plants, to create a uniform series of test pots.
The plants were maintained for the duration of the test in the greenhouse where they received a minimum of 14 hours of light per day. If natural light was insufficient to achieve the daily requirement, artificial light with an intensity of approximately 475 microeinsteins was used to make up the difference. Exposure temperatures were not precisely controlled but averaged about 27° C. during the day and about 21° C. during the night. Plants were sub-irrigated throughout the test to ensure adequate soil moisture levels.
Application of herbicide salt solutions were made by spraying with a track sprayer fitted with a 9501E nozzle calibrated to deliver a spray volume of approximately 38 liters per hectare (l/ha). After treatment, pots were returned to the greenhouse until ready for evaluation.
For evaluation of herbicidal effectiveness, all plants in the test were examined by a single practiced technician, who recorded percent control, a visual measurement of the effectiveness of each treatment by comparison with untreated plants. […] Control of 85% or more is in most cases considered acceptable for normal herbicide use. […] The weed killing efficacy was evaluated 21 days after the treatment.

[1] = Tube test: dicamba volatilized from spray solution into air; assay type: physicochemical; conditions: air about 35° C., about 40% RH, 24 hours
Method: Volatility reduction may be quantified experimentally by methods known in the art. In one method the volatility of solutions containing a herbicide salt can be measured in the gas phase (air) via tube tests. In a tube test, a sample of the herbicide solution is placed in a test tube that has been modified to allow air flow through the tube. A selective collection medium is attached to the outlet of the tube to collect volatilized herbicide. The collection medium is then analyzed for the respective herbicide. For further details see the Tube Test Protocol described in Example 2.
(§1) In this example, various salts of dicamba prepared in Example 1 were selected for volatility testing. As described below, spray solutions containing the selected dicamba salts were prepared and subjected to volatility testing via the tube test and/or humidome protocols. Typically, the spray solutions containing the selected dicamba salts also contained potassium glyphosate co-herbicide. Aqueous test spray solutions containing selected salts of dicamba and potassium glyphosate were prepared by mixing a solution of dicamba salt with a solution of potassium glyphosate salt and adjusting the relative proportion and/or diluting with water to arrive at the desired concentration of dicamba and glyphosate.
To measure the dicamba concentration in the gas phase (air) volatilized from the spray solutions, 10 mL samples of each solution were placed into a 50 mL plastic centrifuge tube with one hole approximately ⅛ in (3.2 mm) diameter drilled into the tube at the mark between 20 mL and 30 mL lines. A 22 mm×30 mm polyurethane foam (PUF), cut from a 76 mm length, available from SKC Inc., catalog #P22692, was placed into a glass tube of approximately 20 mm diameter with parafilm wrapped around the outside to obtain a snug fit into the top of the centrifuge tube. A hose was connected to the other end of the glass tube leading to a vacuum line. The air flow was regulated to approximately 2 L/min using a flow controller. Air was pulled through the tube at approximately 2 L/min for 24 hours. Note that the air conditions of flow rate, temperature, pressure and composition (e.g., relative humidity) are not narrowly critical as long as the various samples are analyzed under similar conditions. For instance, air at from about 5° C. to about 40° C., from about 0.5 to about 1.5 bar pressure, from about 0% to about 95% relative humidity, and at a flow rate of from about 0.1 to 10 L/min-mL sample could be suitably used for volatility analysis. In this test, the air pulled through the tubes was at about 35° C. and about 40% relative humidity. The PUF was removed from the glass tube, extracted with 20 mL methanol and the resulting solution analyzed for dicamba concentration using liquid chromatography-mass spectroscopy (LC-MS) methods known in the art.
For comparison, samples of spray solutions containing 2 wt. % a.e. of the diglycolamine salt of dicamba (i.e., CLARITY) were also subjected to the tube test protocol.
(§2) The reduction in volatility is calculated relative to the volatility of the samples containing the diglycolamine salt of dicamba.

[2] = Humidome test: dicamba volatilized into air from spray solution applied to soil; assay type: physicochemical; conditions: sprayed on soil at 10 GPA, 24 hours, vs CLARITY without glyphosate
Text: In another method, the volatility of solutions containing a herbicide salt can be evaluated by measuring herbicide concentrations in the gas phase (air) through air sampling in humidome plant growth chambers, which are maintained at constant temperature and humidity. For further details see the Humidome Protocol described in Example 2.
as §1
Humidomes were obtained from Hummert International (Part Nos 14-3850-2 for humidomes and 11-3050-1 for 1020 flat tray) and modified by cutting a 2.2 cm diameter hole on one end approximately 5 cm from the top to allow for insertion of a glass air sampling tube (22 mm OD) containing a polyurethane foam (PUF) filter. The sampling tube was secured with a VITON o-ring on each side of the humidome wall. The air sampling tube external to the humidome was fitted with tubing that was connected to a vacuum manifold immediately prior to sampling.
The flat tray beneath the humidome was filled with 1 liter of sifted dry or wet 50/50 soil (50% Redi-Earth and 50% US 10 Field Soil) to a depth of about 1 cm. To measure the dicamba concentration in the gas phase (air) volatilized from the spray solutions, samples of the spray solutions were sprayed over the soil in the humidome using a track sprayer at a rate of 10 gallons per acre (GPA). To avoid contamination of the sides of the flat tray, each tray was nested in an empty tray prior to spraying.
The flat tray bottom containing the dicamba formulation on soil was covered with a humidome lid and the lid was secured with clamps. The assembled humidomes were placed in a temperature and humidity controlled environment and connected to a vacuum manifold through the air sampling line. Air was drawn through the humidome and PUF at a rate of 2 liters per minutes (LPM) for 24 hours at which point the air sampling was stopped. The humidomes were then removed from the controlled environment and the PUF filter was removed. The PUF filter was extracted with 20 mL of methanol and the solution was analyzed for dicamba concentration using LC-MS methods known in the art.
For comparison, samples of spray solutions containing the diglycolamine salt of dicamba (i.e., CLARITY) at approximately the same weight percent a.e. as the tested dicamba salt sprays were subjected to the humidome tests.
as §2

[3] = dicamba salt 2 wt. % a.e., potassium glyphosate 6 wt. % a.e., vs 2 wt. % a.e. CLARITY without glyphosate
[4] = dicamba salt 0.6 wt. % a.e., potassium glyphosate 0.9 wt. % a.e.
[5] = dicamba salt 0.6 wt. % a.e., potassium glyphosate 1.2 wt. % a.e.

SMILES | Volatility Reduction Over DGA Dicamba Spray (%) Tube Test [1, 3] | Volatility Reduction Over DGA Dicamba Spray (%) Humidome Test [2, 4] | further results
CCc1ncc[nH]1.COc1c(Cl)ccc(Cl)c1C(=O)O [2-ethyl imidazolium dicamba] |  |  | Weed killing efficacy (%) (velvetleaf (ABUTH); application rate 140 g a.e./ha): 38.3%; Weed killing efficacy (%) (velvetleaf (ABUTH); application rate 280 g a.e./ha): 67.5%; Weed killing efficacy (%) (velvetleaf (ABUTH); application rate 560 g a.e./ha): 80.8%
CCc1nc(C)c[nH]1.COc1c(Cl)ccc(Cl)c1C(=O)O [2-ethyl-4-methyl imidazolium dicamba] |  |  | Weed killing efficacy (%) (velvetleaf (ABUTH); application rate 140 g a.e./ha): 30.0%; Weed killing efficacy (%) (velvetleaf (ABUTH); application rate 280 g a.e./ha): 62.5%; Weed killing efficacy (%) (velvetleaf (ABUTH); application rate 560 g a.e./ha): 83.3%
COc1c(Cl)ccc(Cl)c1C(=O)O.Cc1ncc[nH]1 [2-methyl imidazolium dicamba] |  |  | Weed killing efficacy (%) (velvetleaf (ABUTH); application rate 140 g a.e./ha): 40.0%; Weed killing efficacy (%) (velvetleaf (ABUTH); application rate 280 g a.e./ha): 66.7%; Weed killing efficacy (%) (velvetleaf (ABUTH); application rate 560 g a.e./ha): 85.0%
C1CCC(N2CCNCC2)CC1.COc1c(Cl)ccc(Cl)c1C(=O)O [Salt 3] | 75% |  | 
COc1c(Cl)ccc(Cl)c1C(=O)O.OCCN1CCNCC1 [Salt 4] | 69% |  | 
CCCCN1CCNCC1.COc1c(Cl)ccc(Cl)c1C(=O)O [Salt 5] | 70% |  | 
CCN1CCNCC1.COc1c(Cl)ccc(Cl)c1C(=O)O [Salt 6] | 83% |  | 
CC(C)c1ncc[nH]1.COc1c(Cl)ccc(Cl)c1C(=O)O [Salt 9] | 65% | 63% | Volatility Reduction Over DGA Dicamba Spray (%) Humidome Test [2, 5]: 67%
CCc1nc(C)c[nH]1.COc1c(Cl)ccc(Cl)c1C(=O)O [Salt 10] | 72% | 86% | Volatility Reduction Over DGA Dicamba Spray (%) Tube Test ([1]; dicamba salt 10 wt. % a.e., no potassium glyphosate, vs 2 wt. % a.e. CLARITY): 88%; Volatility Reduction Over DGA Dicamba Spray (%) Humidome Test [2, 5]: 85%; Volatility Reduction Over DGA Dicamba Spray (%) Humidome Test ([2]; dicamba salt 2.4 wt. % a.e., potassium glyphosate 4.8 wt. % a.e.): 86%
CCc1ncc[nH]1.COc1c(Cl)ccc(Cl)c1C(=O)O [Salt 11] | 67% | 67% | Volatility Reduction Over DGA Dicamba Spray (%) Humidome Test [2, 5]: 60%
COc1c(Cl)ccc(Cl)c1C(=O)O.Cc1ncc[nH]1 [Salt 12] |  | 46% | Volatility Reduction Over DGA Dicamba Spray (%) Humidome Test [2, 5]: 50%
COc1c(Cl)ccc(Cl)c1C(=O)O.Cc1c[nH]c(-c2ccccc2)n1 [Salt 14] |  | 92% | 
CCCN1CCC(=O)CC1.COc1c(Cl)ccc(Cl)c1C(=O)O [Salt 16] | 20% |  | 
CC(C)CN1CCC(=O)CC1.COc1c(Cl)ccc(Cl)c1C(=O)O [Salt 17] | 57% |  | 
C1CCN(C2CCNCC2)CC1.COc1c(Cl)ccc(Cl)c1C(=O)O.COc1c(Cl)ccc(Cl)c1C(=O)O [Salt 19] | 23% |  | 
C(CC1CCNCC1)CC1CCNCC1.COc1c(Cl)ccc(Cl)c1C(=O)O.COc1c(Cl)ccc(Cl)c1C(=O)O [Salt 22] | 60% | 68% | 
CN1CCN(C)CC1.COc1c(Cl)ccc(Cl)c1C(=O)O [Salt 23] | 23% |  | 
COc1c(Cl)ccc(Cl)c1C(=O)O.OCCN1CCN(CCO)CC1 [Salt 24] | 57% | 76% | 
